According to PubChem BioAssay AID2060350 (Molecular Pharmacology Branch, DTP, NCI, 2025):
pIC50: −log10 of the molar value. Values joined by “and” are separate entries in the source; they are usually repeats but may differ in a detail not shown here. Equal values may be shown once.

System: PDC 521955-158-R6-J3 spheroids, viability
Assay: Anticancer human tumor 521955-158-R6-J3-PDC patient-derived pancreatic carcinoma cell line growth inhibition [TAK]
Conditions: spheroids with HUVEC and MSC; for viability, T/C: stronger effect = lower value; active = viability on the fitted dose curve at most 10% of control; inactive = the rest
Source text: Combinatorial screen of targeted agents with TAK-243 and ipatasertib in multi-cell type tumor spheroids
A high-throughput screen of multi-cell type tumor spheroids was designed to identify active combinations of targeted small molecules and TAK-243 or ipatasertib. Complex spheroids include a stromal component modeled by human endothelial cells (HUVEC) and fibroblasts modeled by human mesenchymal stem cells (MSCs). The concentration ranges selected for each drug and investigational agent were based upon clinically achievable concentrations if the clinical Cmax of the agent was known.
Compounds. The drugs and investigational agents: TAK-243 (785004), ipatasertib (767898), everolimus (733504), selumetinib (741078), bortezomib (756655), trametinib (758246), ixazomib (758254), vemurafenib (761431), dabrafenib (764134), sapanisertib (764658), alpelisib (765974), and copanlisib (816437), were obtained from the National Cancer Institute (NCI) Developmental Therapeutics Program Chemical Repository. The FDA-approved anticancer drug set is available from the NCI Developmental Therapeutics Program. […] The stock solutions were prepared in dimethyl sulfoxide (DMSO, Sigma-Aldrich, St. Louis, MO, cat. D2650) at 800-fold the tested concentration and stored at -70 degrees C prior to their use. All drugs and investigational agents were tested over a range starting from a high concentration at or near the clinical Cmax and decreasing in half-log increments. If the clinical Cmax for an agent had not been determined, the highest concentration tested was 10 microM.
NCI60 Cell Culture. NCI60 cell lines were obtained from the NCI Developmental Therapeutics Program Tumor Repository. For each lot of cells, the Repository performed Applied Biosystems AmpFLSTR Identifiler testing with PCR amplification to confirm consistency with the published Identifier STR profile for each cell line. Cells were kept in continuous culture for no more than 20 passages. The optimal seeding densities for each of the cell lines at each time point assessed were determined prior to performing the concentration response studies. Briefly, the NCI60 human tumor lines were grown as monolayers in RPMI 1640 medium supplemented with 10% FBS and 2 mmol/L L-glutamine.
An additional 2 lines were from the NCI60 cell line panel including melanomas, MALME-3M and SK-MEL-2. Pooled donor human umbilical vein endothelial cells (HUVEC, Lonza, cat. CC-2519) and human mesenchymal stem cells (hMSC, Lonza, cat. PT-2501) were purchased from Lonza (Walkersville, MD).
PDMR cell lines were grown in complete medium (DC medium): Dulbecco's modified Eagle's medium (DMEM)/F12 supplemented with 5% fetal bovine serum (FBS), 2 mM L-glutamine, 100 U/mL penicillin and 100 µg/ml streptomycin, 0.4 µg/ml hydrocortisone, 10 ng/ml epidermal growth factor (EGF) recombinant human protein, 24 µg/mL adenine, and 0.1 mg/mL primocin. During culture from frozen stock vials, PDMR cells were cultured in the same medium containing 10 µM Y-27632 (see Table 3). The PDCs were cultured in complete DMEM/F12 media without 10 microM Y-27632 dihydrochloride for at least two passages prior to the screen. The pooled donor HUVEC and hMSC were cultured in endothelial cell growth medium 2 (PromoCell, Heidelberg, Germany, cat. C-22011) and mesenchymal stem cell growth medium 2 (PromoCell, cat. C-28009), respectively. For all experiments, HUVEC and hMSC were used at passages </=5.
For the pre-screen, cell seeding densities were determined from a titration spanning the range from 5,000 to 313 cells per well. The mct-spheroids including 60% malignant cells, 25% HUVEC and 15% MSC dispensed as a mixture into U-bottom Ultra-Low Attachment 384-well plates (Corning, NY)
High-throughput Drug Combination Screening.
Prior to their inoculation into 384-well plates, malignant cells, HUVEC, and hMSC were removed from T flasks using TrypLE express (Thermo Fisher Scientific, cat. 12605036) and harvested by centrifugation for 5 min at 233 x g. […]
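Note: spheroids exposed to drugs for 7 days before readout.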

CC(=O)Nc1cccc(-n2c(=O)n(C3CC3)c(=O)c3c(Nc4ccc(I)cc4F)n(C)c(=O)c(C)c32)c1
7.58 and 7.53: pIC50 (curve of compound)
inactive: viability, T/C (compound 94.9 pM) 98.2% and 112% | viability, T/C (compound 0.0003 µM) 100% and 90.8% | viability, T/C (compound 0.000949 µM) 98.2% and 92.1% | viability, T/C (compound 0.003 µM) 94.2% and 82% | viability, T/C (compound 0.00949 µM) 72.4% and 68.3% | viability, T/C (compound 0.03 µM) 47% and 47.1%

CC(C)(C)c1nc(-c2cccc(NS(=O)(=O)c3c(F)cccc3F)c2F)c(-c2ccnc(N)n2)s1
< 5.00: pIC50 (curve of compound)
inactive: viability, T/C (compound 0.0316 µM) 111% and 97.3% | viability, T/C (compound 0.1 µM) 121% and 111% | viability, T/C (compound 0.316 µM) 135% and 114% | viability, T/C (compound 1 µM) 116% and 111% | viability, T/C (compound 3.16 µM) 108% and 98.3% | viability, T/C (compound 10 µM) 139% and 118%

CC(C)CC(NC(=O)C(Cc1ccccc1)NC(=O)c1cnccn1)B(O)O (stereo not drawn)
inactive: viability, T/C (compound 31.6 pM) 101% and 120% | viability, T/C (compound 0.0001 µM) 97.6% and 107% | viability, T/C (compound 0.000316 µM) 91.6% and 103% | viability, T/C (compound 0.001 µM) 108% and 93.6% | viability, T/C (compound 0.00316 µM) 111% and 87.4% | viability, T/C (compound 0.01 µM) 33.2% and 102%
8.12 and < 8.00: pIC50 (curve of compound)

CC(C)CC(NC(=O)CNC(=O)c1cc(Cl)ccc1Cl)B1OC(=O)CC(CC(=O)O)(C(=O)O)O1 (stereo not drawn)
7.30 and 7.34: pIC50 (curve of compound)
10.2% and 9.97%: viability, T/C (compound 0.1 µM)
inactive: viability, T/C (compound 0.000316 µM) 105% and 101% | viability, T/C (compound 0.001 µM) 101% and 102% | viability, T/C (compound 0.00316 µM) 110% and 100% | viability, T/C (compound 0.01 µM) 114% and 107% | viability, T/C (compound 0.0316 µM) 75.9% and 69.7%

CC(C)NCC(C(=O)N1CCN(c2ncnc3c2C(C)CC3O)CC1)c1ccc(Cl)cc1 (stereo not drawn)
inactive: viability, T/C (compound 0.3 µM) 93.8% [middle of 10 runs]
< 4.52: pIC50 (compound alone, run of 02/20/2020) | pIC50 (compound alone, run of 03/19/2020)

CC(C)n1nc(-c2ccc3oc(N)nc3c2)c2c(N)ncnc21
inactive: viability, T/C (compound 0.000316 µM) 93.6% and 99.9% | viability, T/C (compound 0.001 µM) 95% and 91.3% | viability, T/C (compound 0.00316 µM) 86% and 98.5% | viability, T/C (compound 0.01 µM) 85.3% and 94.8% | viability, T/C (compound 0.0316 µM) 83.2% and 81.7% | viability, T/C (compound 0.1 µM) 73.8% and 70.4%
< 7.00: pIC50 (curve of compound)

CCCS(=O)(=O)Nc1ccc(F)c(C(=O)c2c[nH]c3ncc(-c4ccc(Cl)cc4)cc23)c1F
< 4.00: pIC50 (curve of compound)
inactive: viability, T/C (compound 0.316 µM) 92.9% and 82.9% | viability, T/C (compound 1 µM) 101% and 67% | viability, T/C (compound 3.16 µM) 88.1% and 85% | viability, T/C (compound 10 µM) 101% and 75% | viability, T/C (compound 31.6 µM) 109% and 51.8% | viability, T/C (compound 100 µM) 99.2% and 114%

COC1CC2CCC(C)C(O)(O2)C(=O)C(=O)N2CCCCC2C(=O)OC(C(C)CC2CCC(OCCO)C(OC)C2)CC(=O)C(C)C=C(C)C(O)C(OC)C(=O)C(C)CC(C)C=CC=CC=C1C (stereo not drawn)
< 7.00: pIC50 (curve of compound)
inactive: viability, T/C (compound 0.000316 µM) 93.2% and 99% | viability, T/C (compound 0.001 µM) 107% and 78.7% | viability, T/C (compound 0.00316 µM) 105% and 85.4% | viability, T/C (compound 0.01 µM) 100% and 94.5% | viability, T/C (compound 0.0316 µM) 84.9% and 90.9% | viability, T/C (compound 0.1 µM) 84.3% and 82.4%

COc1c(OCCCN2CCOCC2)ccc2c3n(c(=NC(=O)c4cnc(N)nc4)nc12)CCN3
7.12 and 7.55: pIC50 (curve of compound)
inactive: viability, T/C (compound 0.00316 µM) 85.3% and 76.8% | viability, T/C (compound 0.01 µM) 79.2% and 62.1% | viability, T/C (compound 0.0316 µM) 61.2% and 49.2% | viability, T/C (compound 0.1 µM) 47.5% and 35.9% | viability, T/C (compound 0.316 µM) 30.7% and 23.5% | viability, T/C (compound 1 µM) 23.3% and 18.5%

Cc1nc(NC(=O)N2CCCC2C(N)=O)sc1-c1ccnc(C(C)(C)C(F)(F)F)c1 (stereo not drawn)
inactive: viability, T/C (compound 0.0316 µM) 82.3% and 93.5% | viability, T/C (compound 0.1 µM) 87.3% and 82% | viability, T/C (compound 0.316 µM) 73.3% and 81.9% | viability, T/C (compound 1 µM) 68.2% and 77.4% | viability, T/C (compound 3.16 µM) 72.5% and 67% | viability, T/C (compound 10 µM) 58.3% and 54.9%
< 5.00: pIC50 (curve of compound)

Cn1cnc2c(F)c(Nc3ccc(Br)cc3Cl)c(C(=O)NOCCO)cc21
5.74 and < 5.52: pIC50 (curve of compound)
inactive: viability, T/C (compound 0.00949 µM) 99.2% and 99.6% | viability, T/C (compound 0.03 µM) 88.9% and 88% | viability, T/C (compound 0.0949 µM) 77.6% and 83% | viability, T/C (compound 0.3 µM) 85.5% and 82.2% | viability, T/C (compound 0.949 µM) 56.9% and 70.8% | viability, T/C (compound 3 µM) 41.5% and 53.7%
